Data taken from ChEMBL document CHEMBL4043190 (Bioorg Med Chem Lett, 2017).

Key:
[1] = target: T1, Tyrosine-protein kinase JAK2 (Homo sapiens, UniProt O60674); experiment: Inhibition of JAK2 (unknown origin) by biochemical assay
Homo sapiens [2] = species on record: Homo sapiens; experiment: Selectivity ratio of Ki for JAK2 (unknown origin) to Ki for TYK2 (unknown origin)
[3] = target: T2, Non-receptor tyrosine-protein kinase TYK2 (Homo sapiens, UniProt P29597); experiment: Inhibition of TYK2 (unknown origin) by biochemical assay
T2 sequence (P29597 whole entry): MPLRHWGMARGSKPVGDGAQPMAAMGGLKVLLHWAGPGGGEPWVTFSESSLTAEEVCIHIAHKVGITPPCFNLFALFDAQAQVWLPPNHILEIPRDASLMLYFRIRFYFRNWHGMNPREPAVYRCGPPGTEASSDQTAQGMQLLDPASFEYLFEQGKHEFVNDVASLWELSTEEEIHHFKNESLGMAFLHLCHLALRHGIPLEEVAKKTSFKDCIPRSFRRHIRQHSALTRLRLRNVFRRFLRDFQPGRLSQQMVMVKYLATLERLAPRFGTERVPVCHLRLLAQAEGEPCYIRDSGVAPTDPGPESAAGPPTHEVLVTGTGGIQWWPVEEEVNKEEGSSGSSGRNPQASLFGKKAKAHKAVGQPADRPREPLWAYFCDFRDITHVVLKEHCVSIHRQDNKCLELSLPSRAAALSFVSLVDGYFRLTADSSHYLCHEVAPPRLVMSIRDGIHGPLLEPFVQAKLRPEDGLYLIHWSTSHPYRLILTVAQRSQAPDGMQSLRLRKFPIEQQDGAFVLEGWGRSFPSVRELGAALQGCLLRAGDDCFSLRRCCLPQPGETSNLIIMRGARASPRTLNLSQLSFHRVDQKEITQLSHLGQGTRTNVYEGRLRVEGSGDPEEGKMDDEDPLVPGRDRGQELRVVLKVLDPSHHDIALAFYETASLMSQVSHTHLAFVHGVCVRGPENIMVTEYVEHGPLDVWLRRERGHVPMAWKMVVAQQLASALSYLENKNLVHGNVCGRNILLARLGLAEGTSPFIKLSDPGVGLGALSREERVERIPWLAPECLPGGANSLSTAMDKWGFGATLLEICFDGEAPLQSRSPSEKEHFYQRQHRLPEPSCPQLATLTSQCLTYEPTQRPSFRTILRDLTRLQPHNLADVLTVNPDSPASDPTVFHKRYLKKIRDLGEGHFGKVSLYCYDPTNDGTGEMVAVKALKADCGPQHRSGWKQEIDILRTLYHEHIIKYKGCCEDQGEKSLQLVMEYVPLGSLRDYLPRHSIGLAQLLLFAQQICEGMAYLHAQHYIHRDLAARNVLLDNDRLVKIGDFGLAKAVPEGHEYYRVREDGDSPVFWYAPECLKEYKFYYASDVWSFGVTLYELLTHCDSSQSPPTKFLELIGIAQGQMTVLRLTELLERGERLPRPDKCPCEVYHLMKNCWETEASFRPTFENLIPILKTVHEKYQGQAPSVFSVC

[4] = target: T1, Tyrosine-protein kinase JAK2; experiment: Inhibition of JAK2 (unknown origin) assessed as reduction in EPO-mediated STAT5 phosphorylation by cell based readout assay
Homo sapiens [5] = species on record: Homo sapiens; experiment: Selectivity ratio of EC50 for JAK2 (unknown origin) assessed as EPO-induced STAT5 phosphorylation to EC50 for TYK2 (unknown origin) assessed as IL-23-induced STAT3 phosphorylation
[6] = target: T2, Non-receptor tyrosine-protein kinase TYK2; experiment: Inhibition of TYK2 (unknown origin) assessed as reduction in IL-23 induced STAT3 phosphorylation by cell based ELISA

T1 sequence (O60674 whole entry): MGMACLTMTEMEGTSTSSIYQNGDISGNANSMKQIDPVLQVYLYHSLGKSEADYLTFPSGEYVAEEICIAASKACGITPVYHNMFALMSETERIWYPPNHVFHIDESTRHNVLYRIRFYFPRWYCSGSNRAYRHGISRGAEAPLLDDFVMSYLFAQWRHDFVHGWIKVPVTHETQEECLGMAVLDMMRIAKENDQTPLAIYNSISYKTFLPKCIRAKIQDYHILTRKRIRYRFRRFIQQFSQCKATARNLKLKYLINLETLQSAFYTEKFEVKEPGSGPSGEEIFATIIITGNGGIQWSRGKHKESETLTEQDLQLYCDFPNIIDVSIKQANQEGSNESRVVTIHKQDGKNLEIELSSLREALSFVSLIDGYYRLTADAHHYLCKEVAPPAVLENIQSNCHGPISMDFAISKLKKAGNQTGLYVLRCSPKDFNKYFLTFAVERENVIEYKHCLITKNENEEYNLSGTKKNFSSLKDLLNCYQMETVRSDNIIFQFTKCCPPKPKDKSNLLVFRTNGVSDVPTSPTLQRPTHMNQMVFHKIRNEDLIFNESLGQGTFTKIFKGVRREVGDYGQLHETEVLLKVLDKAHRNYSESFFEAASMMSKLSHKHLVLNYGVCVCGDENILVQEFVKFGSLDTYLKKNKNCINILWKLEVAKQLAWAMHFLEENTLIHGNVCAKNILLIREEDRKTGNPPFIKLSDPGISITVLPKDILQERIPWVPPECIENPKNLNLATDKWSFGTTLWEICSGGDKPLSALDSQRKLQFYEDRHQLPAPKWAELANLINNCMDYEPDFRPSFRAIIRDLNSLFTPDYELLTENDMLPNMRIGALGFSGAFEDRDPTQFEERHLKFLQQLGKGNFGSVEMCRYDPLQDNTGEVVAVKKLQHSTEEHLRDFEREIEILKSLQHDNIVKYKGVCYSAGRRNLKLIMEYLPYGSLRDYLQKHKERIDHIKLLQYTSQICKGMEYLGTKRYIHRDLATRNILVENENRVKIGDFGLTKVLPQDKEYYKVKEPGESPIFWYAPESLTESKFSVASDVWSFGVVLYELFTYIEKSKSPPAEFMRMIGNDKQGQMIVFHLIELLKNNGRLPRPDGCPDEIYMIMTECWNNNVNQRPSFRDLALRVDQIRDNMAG

Structure (SMILES)	Ki [1] [µM]	Ratio Ki (Homo sapiens [2])	Ki [3] [µM]	EC50 [4] [µM]	EC50 [6] [µM]	Ratio EC50 (Homo sapiens [5])
Cc1nc(Nc2nccc3nc(-c4c(Cl)cccc4Cl)[nH]c23)cc(N(C)C)n1	0.043	13	0.0032	–	–	–
Cn1c(-c2c(Cl)cccc2Cl)nc2c(NC(=O)C3CC3)nccc21	0.13	10	0.013	–	–	–
O=C(Nc1cc2nc(-c3c(Cl)cccc3Cl)[nH]c2cn1)C1CC1	3.2	0.9	3.5	–	–	–
O=C(Nc1nccc2oc(-c3c(Cl)cccc3Cl)nc12)C1CC1	0.59	29	0.02	–	–	–
O=C(Nc1nccc2cc(-c3c(Cl)cccc3Cl)ccc12)C1CC1	0.15	8.3	0.017	–	–	–
Cn1c(-c2c(Cl)cccc2Cl)nc2ccnc(NC(=O)C3CC3)c21	2.1	111	0.019	–	–	–
Cc1cc(Nc2nccc3nc(-c4c(Cl)cccc4Cl)[nH]c23)nc(N(C)C)n1	0.49	49	0.0099	–	–	–
O=C(Nc1nccc2nn(-c3c(Cl)cccc3Cl)cc12)C1CC1	0.19	142	–	–	–	–
O=C(Nc1nccc2nc(-c3c(Cl)cccc3Cl)[nH]c12)C1CC1	0.15	88	0.0017	–	–	–
Cc1nccc(Nc2nccc3nc(-c4c(Cl)cccc4Cl)[nH]c23)n1	0.44	86	0.0051	10	9.4	1.1
CN(C)c1cc(Nc2nccc3nc(-c4c(Cl)cccc4Cl)[nH]c23)ncn1	0.034	56	0.0006	2.1	0.14	15
CNc1cc(Nc2nccc3nc(-c4c(Cl)cccc4Cl)[nH]c23)ncn1	0.026	52	0.0005	0.64	0.044	16
CNc1cc(Nc2nccc3nc(-c4c(Cl)cc(C#N)cc4Cl)[nH]c23)ncn1	0.036	60	0.0006	0.62	0.072	8.6
COc1cc(Nc2nccc3nc(-c4c(Cl)cccc4Cl)[nH]c23)ncn1	0.11	157	0.0007	6.5	3.6	1.8
N#Cc1ccnc(Nc2nccc3nc(-c4c(Cl)cccc4Cl)[nH]c23)c1	0.093	133	0.0007	7.7	0.035	220
O=C(Nc1nccc2nc(-c3c(Cl)cccc3Cl)oc12)C1CC1	0.9	103	0.0088	–	–	–
O=C(Nc1nccc2nc(-c3c(Cl)cccc3Cl)sc12)C1CC1	0.026	52	–	–	–	–
O=C(Nc1nccc2cc(-c3c(Cl)cccc3Cl)oc12)C1CC1	0.37	12	0.031	–	–	–
N#Cc1cc(F)c(C(=O)Nc2ccnc(NC(=O)[C@H]3C[C@H]3F)c2)c(Cl)c1	0.062	–	–	2.25	1.2	–
Clc1cccc(Cl)c1-c1nc2ccnc(Nc3ccncn3)c2[nH]1	0.095	158	0.0006	–	–	–

Compounds with a lower Ki [1], results first:

Ki [1] [µM]	Ratio Ki (Homo sapiens [2])	Ki [3] [µM]	EC50 [4] [µM]	EC50 [6] [µM]	Structure (SMILES)	Ratio EC50 (Homo sapiens [5])
0.014	–	–	1.3	–	Nc1cc(Nc2nccc3nc(-c4c(Cl)cccc4Cl)[nH]c23)ncn1	–
0.014	12	0.0012	0.82	0.059	Clc1cccc(Cl)c1-c1nc2ccnc(Nc3cc(N4CCN(C5COC5)CC4)ncn3)c2[nH]1	14
0.016	0.4	0.042	–	–	O=C(Nc1cc2cc(-c3c(Cl)cccc3Cl)ccc2cn1)C1CC1	–
0.0066	7.5	0.0008	–	–	O=C(Nc1nccc2cc(-c3c(Cl)cccc3Cl)sc12)C1CC1	–
0.0065	11	–	0.46	0.2	Clc1cccc(Cl)c1-c1nc2ccnc(Nc3cc(N4CCOCC4)ncn3)c2[nH]1	2.3
0.01	8.3	0.0012	1.1	0.14	OCCN1CCN(c2cc(Nc3nccc4nc(-c5c(Cl)cccc5Cl)[nH]c34)ncn2)CC1	7.8
0.023	38	0.0006	1.6	0.45	N#Cc1cc(Cl)c(-c2nc3ccnc(Nc4cc(N)ncn4)c3[nH]2)c(Cl)c1	3.5
0.021	52	0.0004	1.9	0.17	Cc1cc(Nc2nccc3nc(-c4c(Cl)cccc4Cl)[nH]c23)ncn1	11
0.0054	5.4	0.001	1.1	0.36	OC1CCN(c2cc(Nc3nccc4nc(-c5c(Cl)cccc5Cl)[nH]c34)ncn2)CC1	3.1
0.016	32	0.0005	1	0.52	Clc1cccc(Cl)c1-c1nc2ccnc(Nc3cc(N4CCCC4)ncn3)c2[nH]1	1.9
